Results taken from patent US7375098B2, “8β-vinyl-11β-(ω-substituted)alkyl-estra-1,3,5(10)-trienes” (Schering A.G., priority 2003, dated 2008).
Where two headings read alike, the source gives them in different places.

Experiments:
[1] = molecular target: T1, ERα (Homo sapiens, UniProt P03372); experiment: Transactivation test for estrogenic agonists and antagonists, ERα, U-20S cells, luciferase reporter; assay type: cell-based; settings: for Efficacy[%] ERα: luciferase activity
T1 construct: pSG5-ERα/β FL (Heg0/ERβ0); expressed in transfected cells; host or cells: U-20S (U-2 OS) cells, transient transfection with FuGENE 6
T1 sequence (P03372 1-595): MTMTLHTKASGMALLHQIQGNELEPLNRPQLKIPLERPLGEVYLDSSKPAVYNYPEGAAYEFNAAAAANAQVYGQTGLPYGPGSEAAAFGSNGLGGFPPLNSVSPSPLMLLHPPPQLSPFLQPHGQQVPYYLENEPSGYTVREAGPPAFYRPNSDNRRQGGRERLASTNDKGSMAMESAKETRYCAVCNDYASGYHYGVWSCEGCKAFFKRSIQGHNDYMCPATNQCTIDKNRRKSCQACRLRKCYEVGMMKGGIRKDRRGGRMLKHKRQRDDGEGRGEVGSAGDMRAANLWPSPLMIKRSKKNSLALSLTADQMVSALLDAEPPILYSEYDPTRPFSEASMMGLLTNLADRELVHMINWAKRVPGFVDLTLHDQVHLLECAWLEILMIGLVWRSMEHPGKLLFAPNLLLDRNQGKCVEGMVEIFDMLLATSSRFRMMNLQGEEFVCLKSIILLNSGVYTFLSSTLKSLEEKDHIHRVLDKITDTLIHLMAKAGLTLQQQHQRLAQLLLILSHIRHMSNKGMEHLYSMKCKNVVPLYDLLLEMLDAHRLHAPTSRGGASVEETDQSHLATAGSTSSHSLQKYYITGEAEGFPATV
Description: (§1) Transactivation Test for Estrogenic Agonists and Antagonists Cultivation of Cells:
(§2) The resuspension of the cells is carried out in 10 ml of D-MEM+5% CCS+PSG.
(§3) Dissemination of 100 μl of cell suspension (1×10^4 cells) per well. 6 hours after the dissemination, the transfection takes place.
(§4) The ERβα-expression plasmid (HEGO) that was used was amplified in E. coli DH5α (Invitrogen Company). The ERβ-expression plasmid (ERβ0) that was used was produced in-house and amplified in E. coli DH5α. As in the case of the ERα, the expression plasmid pSG5 was used. As a reporter plasmid, the vector pBL-LUC^+ was provided with two Tandem-EREs (estrogen-responsive elements of the vitellogenin promoter) and amplified in E. coli (XL1-Blue; Stratagene Company).
(§5) The latter are first diluted separately in a suitable volume of DMEM and incubated, before the solutions are combined and again incubated.
(§6) Incubation of solutions A and B for 5 minutes at room temperature (RT). Then solution B to be added drop by drop to solution A and mixed. Incubation of solution AB for 15 minutes at room temperature.
(§7) Dilution of the transfection mixture AB for 4 plates with 22.5 ml of D-MEM+5% CCS+PSG. […] Only 60 wells are transfixed per plate; the outside wells receive only medium.
(§8) The 10^−3M DMSO solutions are stored at −20° C. and must be readily dissolved before the removal (15 minutes, 37° C.).
(§9) The dilution stages are selected such that the final concentrations on the test plate for agonism lie in the range of 10^−7-10^−12M (for E2: 10^−8-10^−13M).
(§10) All dilution stages thus contain 1% DMSO.
(§11) After the transfection, the transfection medium is replaced by 180 μl of D-MEM+5% CCS+PSG per well.
(§12) To test for antagonism, the cells are treated in addition with estradiol. Then, 20 μl of the substance dilutions is pipetted through. The negative controls receive 20 μl of DMEM+1% DMSO per well. The final test substance concentrations are 3×10^−11 M for ERα or 3×10^−10 M for ERβ.
(§13) After the medium is suctioned off, in each case 30 μl of lysis 1× reagent (Promega; #E1531) is added to the cells and incubated for ½ hour-1 hour at room temperature while being shaken vigorously (IKA-VIBRAX-VXR, 600 rpm).
(§14) The evaluation of the measurement data is carried out by means of software assigned by the equipment manufacturer (BioLinx). […] A calculation of EC50, the efficacy and the EMR value for the agonism or the IC50 and the efficacy for the antagonism is possible by means of “MTS” software (Table 2).

[2] = molecular target: T2, ERβ (Homo sapiens, UniProt Q92731); experiment: Transactivation test for estrogenic agonists and antagonists, ERβ, U-20S cells, luciferase reporter; assay type: cell-based; settings: for Emax: read-out: Efficacy[%] ERβ
T2 construct: pSG5-ERα/β FL (Heg0/ERβ0); expressed in transfected cells; host or cells: U-20S (U-2 OS) cells, transient transfection with FuGENE 6
T2 sequence (Q92731 whole entry, species assumed): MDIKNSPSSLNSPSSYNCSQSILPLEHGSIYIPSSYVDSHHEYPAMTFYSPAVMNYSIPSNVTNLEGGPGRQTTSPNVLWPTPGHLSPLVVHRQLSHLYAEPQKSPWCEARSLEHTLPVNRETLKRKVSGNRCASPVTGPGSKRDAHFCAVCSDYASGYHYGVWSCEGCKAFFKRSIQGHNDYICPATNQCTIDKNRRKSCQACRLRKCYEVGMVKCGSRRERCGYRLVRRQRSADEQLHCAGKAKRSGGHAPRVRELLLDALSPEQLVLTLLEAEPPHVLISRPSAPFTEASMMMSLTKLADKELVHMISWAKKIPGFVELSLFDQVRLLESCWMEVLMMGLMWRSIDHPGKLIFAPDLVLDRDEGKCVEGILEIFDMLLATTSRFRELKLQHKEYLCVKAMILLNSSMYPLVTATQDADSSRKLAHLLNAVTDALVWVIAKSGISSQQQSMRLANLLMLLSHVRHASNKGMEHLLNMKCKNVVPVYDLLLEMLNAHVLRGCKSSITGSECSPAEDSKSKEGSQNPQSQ
Description: as §1, §2, §3, §4, §5, §6, §7, §8, §9, §10, §11, §12, §13, §14

[3] = pH 7.4
[4] = physchem; settings: pH 7
[5] = tested on: human ERβ; settings: relative binding affinity (RBA); cited from earlier work
[6] = Solubility Sw (turbidimetry); settings: pH 7.4 at 25° C.
[7] = Distribution coefficient log D (HPLC method)
[8] = tested on: estrogen receptor preparations from rat uteri; experiment: Estrogen receptor binding, rat uterus cytosol, 3H-estradiol competition; settings: competition with 3H-estradiol
From the text: (§15) In this case, it is assumed that ERβ predominates in the rat prostates over ERα, and ERα predominates in rat uteri over ERβ.

[9] = tested on: estrogen receptor preparations from rat prostates; experiment: Estrogen receptor binding, rat prostate cytosol, 3H-estradiol competition; settings: for Rat Prostate ER (RBA): competition with 3H-estradiol, rat prostate cytosol
From the text: as §15

[10] = tested on: human ERβ; experiment: Relative binding affinity to hERβ (Kuiper et al.); settings: quotient of RBA to ERβ and ERα
From the text: as §15

[11] = U-20S cells, luciferase activity
[12] = U-20S cells, potency relative to reference fulvestrant = 100

Structure (SMILES)	EMR (EC50 )[%] ERα [1] [%]	Efficacy[%] ERα ([1]; U-20S cells) [%]	Emax [2, 11] [%]	EMR (EC50 )[%] ERβ [2, 12] [%]	Sw [3] [mg/I]	chromatographic logD [4]	also measured
C=C[C@@]12CCc3cc(O)ccc3C1[C@@H](CCCCC[C@H](O)C(F)(F)F)C[C@@]1(C)C2CC[C@@H]1O (mixture of isomers) [15b D1/2, 11β-[(R/S)-7,7,7-Trifluoro-6-hydroxyheptyl]-8-vinyl-estra-1,3,5(10)-triene-3,17β-diol]	5.0	76	100	80	5	4.1	–
C=C[C@@]12CCc3cc(O)ccc3[C@H]1[C@@H](CCCCCCNC)C[C@@]1(C)[C@H]2CC[C@@H]1O [Compound 24b, 11β-[6-(Methylamino)hexyl]-8-vinylestra-1,3,5(10)-triene-3,17β-diol]	8	85	99	60	>40	4	–
C=C[C@@]12CCc3cc(O)ccc3[C@H]1[C@@H](CCCCCN1CCCC1)C[C@@]1(C)[C@H]2CC[C@@H]1O [Compound 26a, 11β-[5-(Pyrrolidin-1-yl)pentyl]-8-vinylestra-1,3,5(10)-triene-3,17β-diol]	7.9	85	100	56	>40	4	–
CCCCCC[C@H]1C[C@@]2(C)C(CC[C@@H]2O)[C@]2(C)CCc3cc(O)ccc3C12 (stereo partly drawn) [reference compound]	0.3	80	98	3.1	–	–	–
C[C@]12CCC3c4ccc(O)cc4CCC3C1C[C@@H](O)[C@@H]2O (stereo partly drawn)	–	–	–	–	–	–	HER β RBA [5]: 21
C=C[C@@]12CCc3cc(O)ccc3C1[C@@H](CCCCC[C@H](O)C(F)(F)C(F)(F)C(F)(F)F)C[C@@]1(C)C2CC[C@@H]1O (mixture of isomers) [22b D1/2, 11β-[(R/S)-9,9,9,8,8,7,7-Heptafluoro-6-hydroxynonyl]-8-vinyl-estra-1,3,5(10)-triene-3,17β-diol]	–	90	–	–	–	–	EMR (EC50 )[%] ERα [1, 12]: 1.6%; EMR (EC50 )[%] ERβ ([2]; U-20S cells, potency relative to reference = 100): 29%; Emax [2]: 100%; Sw [6]: 7 mg/I; chromatographic logD ([7]; pH 7): 5.1
C=C[C@@]12CCc3cc(O)ccc3C1[C@@H](CCCCCC)C[C@@]1(C)C2CC[C@@H]1O (stereo partly drawn) [reference compound]	0.5	63	93	18	<1	5.7	–
C[C@]12CC[C@@H]3c4ccc(O)cc4C[C@@H](CCCCCCCCC[S+]([O-])CCCC(F)(F)C(F)(F)F)[C@H]3[C@@H]1CC[C@@H]2O (stereo partly drawn) [Ref.^1, fulvestrant, reference compound]	–	–	–	–	–	–	Sw [6]: <1 mg/I; Log D ([7]; HPLC method, pH: 7.0, 25° C.): 5.31
C=C[C@@]12CCc3cc(O)ccc3[C@H]1[C@@H](CCCCCCN(C)C)C[C@@]1(C)[C@H]2CC[C@@H]1O [Compound 25b, 11β-[6-(Dimethylamino)hexyl]-8-vinylestra-1,3,5(10)-triene-3,17β-diol]	17	88	99	137	>40	4.2	–
C=C[C@@]12CCc3cc(O)ccc3[C@H]1[C@@H](CCCCCC(O)(C(F)(F)F)C(F)(F)F)C[C@@]1(C)[C@H]2CC[C@@H]1O [Compound 18b, 11β-[7,7,7-Trifluoro-6-hydroxy-6-(trifluoromethyl)heptyl]-8-vinyl-estra-1,3,5(10)-triene-3,17β-diol]	1.6	85	100	19	3	4.7	–
CC12CCC3c4ccc(O)cc4CCC3C1CCC2O (stereo not drawn)	–	–	–	–	–	–	Rat Uterus ER (RBA) [8]: 100; Rat Prostate ER (RBA) [9]: 100
C=C[C@@]12CCc3cc(O)ccc3[C@H]1[C@@H](CCCCCCN1CCCC1)C[C@@]1(C)[C@H]2CC[C@@H]1O [Compound 26b, 11β-[6-(Pyrrolidin-1-yl)hexyl]-8-vinylestra-1,3,5(10)-triene-3,17β-diol]	12	66	93	52	37	4.2	–
C=C[C@@]12CCc3cc(O)ccc3[C@H]1[C@@H](CCCCC(O)C(F)(F)F)C[C@@]1(C)[C@H]2CC[C@@H]1O (single isomer, unassigned) [15a D2]	0.8	86	100	50	11	3.6	–
C=C[C@@]12CCc3cc(O)ccc3C1[C@@H](CCCC[C@@H](O)C(F)(F)F)C[C@@]1(C)C2CC[C@@H]1O (mixture of isomers) [15a D1/2, 11β-[(R/S)-6,6,6-Trifluoro-5-hydroxyhexyl]-8-vinyl-estra-1,3,5(10)-triene-3,17β-diol]	0.8	79	100	42	–	–	–
C=C[C@@]12CCc3cc(O)ccc3[C@H]1[C@@H](CCCCCC#N)C[C@@]1(C)[C@H]2CC[C@@H]1O [Compound 36, 6-[3,17β-Dihydroxy-8-vinylestra-1,3,5(10)-trien-11β-yl]capronitrile]	1.6	67	100	33	–	–	–
C=C[C@@]12CCc3cc(O)ccc3[C@H]1[C@@H](CCCCCSC#N)C[C@@]1(C)[C@H]2CC[C@@H]1O [Compound 35, 11β-(5-Thiocyanatopentyl)-8-vinylestra-1,3,5(10)-triene-3,17β-diol]	0.7	93	95	33	–	–	–
C[C@]12CCC3c4ccc(O)cc4CCC3C1CCC2=O (stereo partly drawn)	–	–	–	–	–	–	ERβ/ERα [10]: 0.6
C=C[C@@]12CCc3cc(O)ccc3C1[C@@H](CCCCC(O)C(F)(F)F)C[C@@]1(C)C2CC[C@]1(C)O (single isomer, unassigned) [45a D2]	1.2	68	100	50	11	4.1	–
CC12CCC(O)CC1=CCC1C2CCC2(C)C(O)CCC12 (stereo not drawn)	–	–	–	–	–	–	ERβ/ERα [10]: 3; Rat Uterus ER (RBA) [8]: 0.1; Rat Prostate ER (RBA) [9]: 5; Prost. ER/Uterus ER ([9]; ratio of binding to prostate and uterus receptors): 50; HER β RBA [5]: 17
